From PubChem BioAssay (NCI)
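Growth conditions: 96-well plates. Treatment: test compound, 48 hours, 5 concentrations. Analysis: linear interpolation between bracketing concentrations; unreached endpoints set to highest concentration. GI50: concentration for 50% inhibition of growth. TGI marks complete inhibition of growth.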

Columns and labels:
Test in all cases: DTP human tumour cell line panel, 48 h
KM12 colon = system: KM12 colon
SK-OV-3 ovarian = system: SK-OV-3 ovarian
HCT-15 colon = system: HCT-15 colon
HL-60(TB) leukemia = system: HL-60(TB) leukemia
DU-145 prostate = system: DU-145 prostate
SK-MEL-5 melanoma = system: SK-MEL-5 melanoma
MDA-MB-435 = system: MDA-MB-435
K-562 leukemia = system: K-562 leukemia
RPMI-8226 leukemia = system: RPMI-8226 leukemia
HS 578T breast = system: HS 578T breast
SNB-19 CNS = system: SNB-19 CNS
SW-620 colon = system: SW-620 colon
M14 melanoma = system: M14 melanoma
MALME-3M melanoma = system: MALME-3M melanoma
PC-3 prostate = system: PC-3 prostate
SNB-75 CNS = system: SNB-75 CNS
OVCAR-5 ovarian = system: OVCAR-5 ovarian
TK-10 renal = system: TK-10 renal
COLO 205 colon = system: COLO 205 colon
IGROV1 ovarian = system: IGROV1 ovarian
HCC-2998 colon = system: HCC-2998 colon
HT29 colon = system: HT29 colon
CAKI-1 renal = system: CAKI-1 renal
SK-MEL-2 melanoma = system: SK-MEL-2 melanoma
SK-MEL-28 melanoma = system: SK-MEL-28 melanoma
RXF 393 renal = system: RXF 393 renal
NCI/ADR-RES ovarian = system: NCI/ADR-RES ovarian
NCI-H460 lung = system: NCI-H460 lung
HCT-116 colon = system: HCT-116 colon
UACC-257 melanoma = system: UACC-257 melanoma
MDA-MB-231 breast = system: MDA-MB-231 breast
HOP-92 NSCLC = system: HOP-92 NSCLC
OVCAR-4 ovarian = system: OVCAR-4 ovarian
SF-539 CNS = system: SF-539 CNS
SN12C renal = system: SN12C renal
NCI-H23 lung = system: NCI-H23 lung
MCF7 breast = system: MCF7 breast
CCRF-CEM leukemia = system: CCRF-CEM leukemia
UACC-62 melanoma = system: UACC-62 melanoma
NCI-H226 lung = system: NCI-H226 lung
786-0 renal = system: 786-0 renal
A498 renal = system: A498 renal
UO-31 renal = system: UO-31 renal
U251 CNS = system: U251 CNS
SF-268 CNS = system: SF-268 CNS
HOP-62 NSCLC = system: HOP-62 NSCLC
EKVX NSCLC = system: EKVX NSCLC
ACHN renal = system: ACHN renal
SF-295 CNS = system: SF-295 CNS
T-47D breast = system: T-47D breast
A549 NSCLC = system: A549 NSCLC
MOLT-4 leukemia = system: MOLT-4 leukemia
OVCAR-8 ovarian = system: OVCAR-8 ovarian
NCI-H522 lung = system: NCI-H522 lung
SR leukemia = system: SR leukemia

**Q.** For `N#Cc1cccc(NC(=O)c2cc(-c3ccc(F)cc3F)ccc2O)c1`, which GI50 (KM12 colon) is on record?
**A.** 2.72 µM

**Q.** And the TGI (KM12 colon)?
**A.** 8.24 µM

**Q.** What about the GI50 (SK-OV-3 ovarian) of the same compound?
**A.** 2.35 µM

**Q.** And the TGI (SK-OV-3 ovarian)?
**A.** 8.88 µM

**Q.** What about the GI50 (HCT-15 colon) of the same compound?
**A.** 1.9 µM

**Q.** And the TGI (HCT-15 colon)?
**A.** 6.93 µM

**Q.** And the GI50 (HL-60(TB) leukemia)?
**A.** 1.8 µM

**Q.** And the TGI (HL-60(TB) leukemia)?
**A.** 5.27 µM

**Q.** And the GI50 (DU-145 prostate)?
**A.** 2.63 µM

**Q.** What about the TGI (DU-145 prostate) of the same compound?
**A.** > 100 µM

**Q.** And the GI50 (SK-MEL-5 melanoma)?
**A.** 0.507 µM

**Q.** And the TGI (SK-MEL-5 melanoma)?
**A.** 1.94 µM

**Q.** What about the GI50 (MDA-MB-435) of the same compound?
**A.** 1.37 µM

**Q.** And the TGI (MDA-MB-435)?
**A.** 6.32 µM

**Q.** And the GI50 (K-562 leukemia)?
**A.** 1.51 µM

**Q.** What about the TGI (K-562 leukemia) of the same compound?
**A.** > 100 µM

**Q.** And the GI50 (RPMI-8226 leukemia)?
**A.** 0.562 µM

**Q.** What about the TGI (RPMI-8226 leukemia) of the same compound?
**A.** 3.17 µM

**Q.** And the GI50 (HS 578T breast)?
**A.** 2.02 µM

**Q.** What about the TGI (HS 578T breast) of the same compound?
**A.** 7.21 µM

**Q.** And the GI50 (SNB-19 CNS)?
**A.** 2.37 µM

**Q.** What about the TGI (SNB-19 CNS) of the same compound?
**A.** 14.3 µM

**Q.** And the GI50 (SW-620 colon)?
**A.** 2.99 µM

**Q.** What about the TGI (SW-620 colon) of the same compound?
**A.** 17.1 µM

**Q.** And the GI50 (M14 melanoma)?
**A.** 2.25 µM

**Q.** What about the TGI (M14 melanoma) of the same compound?
**A.** 8.89 µM

**Q.** What about the GI50 (MALME-3M melanoma) of the same compound?
**A.** 1.01 µM

**Q.** What about the TGI (MALME-3M melanoma) of the same compound?
**A.** 4 µM

**Q.** What about the GI50 (PC-3 prostate) of the same compound?
**A.** 2.89 µM

**Q.** What about the TGI (PC-3 prostate) of the same compound?
**A.** 17.9 µM

**Q.** And the GI50 (SNB-75 CNS)?
**A.** 1.29 µM

**Q.** What about the TGI (SNB-75 CNS) of the same compound?
**A.** 3.88 µM

**Q.** And the GI50 (OVCAR-5 ovarian)?
**A.** 3.39 µM

**Q.** And the TGI (OVCAR-5 ovarian)?
**A.** 30.2 µM

**Q.** What about the GI50 (TK-10 renal) of the same compound?
**A.** 3.49 µM

**Q.** And the TGI (TK-10 renal)?
**A.** 15.7 µM

**Q.** And the GI50 (COLO 205 colon)?
**A.** 11.5 µM

**Q.** And the TGI (COLO 205 colon)?
**A.** 25.1 µM

**Q.** What about the GI50 (IGROV1 ovarian) of the same compound?
**A.** 2.6 µM

**Q.** And the TGI (IGROV1 ovarian)?
**A.** > 100 µM

**Q.** What about the GI50 (HCC-2998 colon) of the same compound?
**A.** 3.22 µM

**Q.** What about the TGI (HCC-2998 colon) of the same compound?
**A.** 12.4 µM

**Q.** And the GI50 (HT29 colon)?
**A.** 5.71 µM

**Q.** What about the TGI (HT29 colon) of the same compound?
**A.** > 100 µM

**Q.** And the GI50 (CAKI-1 renal)?
**A.** 1.31 µM

**Q.** And the TGI (CAKI-1 renal)?
**A.** 4.74 µM

**Q.** What about the GI50 (SK-MEL-2 melanoma) of the same compound?
**A.** 0.768 µM

**Q.** What about the TGI (SK-MEL-2 melanoma) of the same compound?
**A.** 3.85 µM

**Q.** And the GI50 (SK-MEL-28 melanoma)?
**A.** 1.38 µM

**Q.** And the GI50 (RXF 393 renal)?
**A.** 2.25 µM

**Q.** What about the TGI (RXF 393 renal) of the same compound?
**A.** 6.6 µM

**Q.** And the GI50 (NCI/ADR-RES ovarian)?
**A.** 2.11 µM

**Q.** What about the TGI (NCI/ADR-RES ovarian) of the same compound?
**A.** 9.92 µM

**Q.** And the GI50 (NCI-H460 lung)?
**A.** 1.42 µM

**Q.** And the TGI (NCI-H460 lung)?
**A.** 13.3 µM

**Q.** And the GI50 (HCT-116 colon)?
**A.** 1.89 µM

**Q.** And the TGI (HCT-116 colon)?
**A.** 8.91 µM

**Q.** And the GI50 (UACC-257 melanoma)?
**A.** 0.893 µM

**Q.** And the TGI (UACC-257 melanoma)?
**A.** 5.32 µM

**Q.** What about the GI50 (MDA-MB-231 breast) of the same compound?
**A.** 2.12 µM

**Q.** What about the TGI (MDA-MB-231 breast) of the same compound?
**A.** 5.93 µM

**Q.** And the GI50 (HOP-92 NSCLC)?
**A.** 0.338 µM

**Q.** What about the TGI (HOP-92 NSCLC) of the same compound?
**A.** 1.93 µM

**Q.** And the GI50 (OVCAR-4 ovarian)?
**A.** 0.899 µM

**Q.** What about the TGI (OVCAR-4 ovarian) of the same compound?
**A.** 14.2 µM

**Q.** What about the GI50 (SF-539 CNS) of the same compound?
**A.** 2.54 µM

**Q.** What about the GI50 (SN12C renal) of the same compound?
**A.** 1.44 µM

**Q.** And the TGI (SN12C renal)?
**A.** 6.46 µM

**Q.** What about the GI50 (NCI-H23 lung) of the same compound?
**A.** 1.49 µM

**Q.** And the TGI (NCI-H23 lung)?
**A.** 6.23 µM

**Q.** And the GI50 (MCF7 breast)?
**A.** 1.87 µM

**Q.** What about the TGI (MCF7 breast) of the same compound?
**A.** 10.7 µM

**Q.** And the GI50 (CCRF-CEM leukemia)?
**A.** 3.25 µM

**Q.** And the TGI (CCRF-CEM leukemia)?
**A.** 19.3 µM

**Q.** And the GI50 (UACC-62 melanoma)?
**A.** 0.522 µM

**Q.** What about the TGI (UACC-62 melanoma) of the same compound?
**A.** 2.7 µM

**Q.** And the GI50 (NCI-H226 lung)?
**A.** 1.86 µM

**Q.** What about the TGI (NCI-H226 lung) of the same compound?
**A.** 7.36 µM

**Q.** And the GI50 (786-0 renal)?
**A.** 3.06 µM

**Q.** And the TGI (786-0 renal)?
**A.** 10.7 µM

**Q.** And the GI50 (A498 renal)?
**A.** 0.374 µM

**Q.** What about the TGI (A498 renal) of the same compound?
**A.** 2.12 µM

**Q.** And the GI50 (UO-31 renal)?
**A.** 1.82 µM

**Q.** And the TGI (UO-31 renal)?
**A.** 9.03 µM

**Q.** And the GI50 (U251 CNS)?
**A.** 2.56 µM

**Q.** What about the TGI (U251 CNS) of the same compound?
**A.** 25.5 µM

**Q.** What about the GI50 (SF-268 CNS) of the same compound?
**A.** 2.38 µM

**Q.** What about the TGI (SF-268 CNS) of the same compound?
**A.** 20.7 µM

**Q.** What about the GI50 (HOP-62 NSCLC) of the same compound?
**A.** 2.39 µM

**Q.** And the TGI (HOP-62 NSCLC)?
**A.** 7.96 µM

**Q.** What about the GI50 (EKVX NSCLC) of the same compound?
**A.** 2.68 µM

**Q.** What about the TGI (EKVX NSCLC) of the same compound?
**A.** 9.32 µM

**Q.** And the GI50 (ACHN renal)?
**A.** 2.65 µM

**Q.** And the TGI (ACHN renal)?
**A.** 10.1 µM

**Q.** What about the GI50 (SF-295 CNS) of the same compound?
**A.** 1.96 µM

**Q.** And the TGI (SF-295 CNS)?
**A.** 4.44 µM

**Q.** What about the GI50 (T-47D breast) of the same compound?
**A.** 0.496 µM

**Q.** What about the TGI (T-47D breast) of the same compound?
**A.** 6.57 µM

**Q.** And the GI50 (A549 NSCLC)?
**A.** 3.52 µM

**Q.** And the TGI (A549 NSCLC)?
**A.** > 100 µM

**Q.** What about the GI50 (MOLT-4 leukemia) of the same compound?
**A.** 2.55 µM

**Q.** And the TGI (MOLT-4 leukemia)?
**A.** 8.6 µM

**Q.** And the GI50 (OVCAR-8 ovarian)?
**A.** 2.88 µM

**Q.** What about the TGI (OVCAR-8 ovarian) of the same compound?
**A.** > 100 µM

**Q.** And the GI50 (NCI-H522 lung)?
**A.** 0.642 µM

**Q.** What about the TGI (NCI-H522 lung) of the same compound?
**A.** 10.9 µM

**Q.** And the GI50 (SR leukemia)?
**A.** 2.91 µM

**Q.** What about the TGI (SR leukemia) of the same compound?
**A.** 23.2 µM
